Read-outs that look alike come from different tables or passages of the source.
How the values were obtained:
plasmin = molecular target: T1, plasmin (Homo sapiens, UniProt P00747); assay: In vitro plasmin stability assay; format: in vitro ADME
T1 construct: Tissue plasminogen factor (tPA), which generates plasmin from plasminogen
Protocol: At selected time points during the incubation, the ligands were extracted from 80 μL of assay matrix by treatment with 80 μL of 50% acetonitrile (ACN). The samples were filtered and analysed by UPLC to determine the amount of ligand remaining. LC-MS analysis was performed to confirm ligand integrity and identify cleavage sites.

[1] = test system: HeLa cells stably expressing HaloGFP; assay: Chloroalkane penetration assay (CAPA), membrane permeability and cellular uptake; format: cell-based
Summary of the method: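 Pulse-chase CAPA: HeLa cells with cytosolic HaloGFP exposed to serially diluted chloroalkane-tagged compound for 4 h at 37 °C, washed, chased with TAMRA-CA (5 μM) for 15 min, then read by flow cytometry. CP50 is half-maximal red fluorescence from normalized dose-response curves; signal falls as penetration rises.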

[2] = isolated enzyme plasmin, read-out: T1/2

T1 sequence (P00747 581-810 limits assumed, species assumed): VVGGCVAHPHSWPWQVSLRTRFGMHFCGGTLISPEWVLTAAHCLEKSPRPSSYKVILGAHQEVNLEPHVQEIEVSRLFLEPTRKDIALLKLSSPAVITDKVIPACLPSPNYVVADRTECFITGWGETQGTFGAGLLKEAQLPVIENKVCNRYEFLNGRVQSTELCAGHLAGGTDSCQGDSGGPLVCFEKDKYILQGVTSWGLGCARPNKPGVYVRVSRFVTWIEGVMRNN
T1 sequence (P00747 97-580 partner limits assumed, species assumed): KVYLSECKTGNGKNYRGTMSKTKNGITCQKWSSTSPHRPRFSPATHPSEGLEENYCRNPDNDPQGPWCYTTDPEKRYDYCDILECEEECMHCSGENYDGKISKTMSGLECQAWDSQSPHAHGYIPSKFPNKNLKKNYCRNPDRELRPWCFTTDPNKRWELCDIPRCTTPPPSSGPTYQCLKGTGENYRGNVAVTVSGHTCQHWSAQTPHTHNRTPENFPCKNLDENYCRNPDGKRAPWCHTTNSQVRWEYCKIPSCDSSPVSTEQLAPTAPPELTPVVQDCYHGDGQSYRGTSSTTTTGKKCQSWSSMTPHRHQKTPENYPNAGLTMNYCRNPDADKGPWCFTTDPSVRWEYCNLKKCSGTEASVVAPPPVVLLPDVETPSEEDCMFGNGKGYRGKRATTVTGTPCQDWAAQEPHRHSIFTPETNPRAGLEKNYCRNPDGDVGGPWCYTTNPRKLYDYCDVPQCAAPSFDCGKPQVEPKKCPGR

Structure (SMILES) | half-life at 100 μM (plasmin; isolated enzyme plasmin) [h] | also measured
CC[C@H](C)[C@H](NC(=O)CCOCCOCCN(CCOCCOCCC(=O)N[C@H](C(=O)N[C@@H](CCC(=O)O)C(=O)N[C@H](C(=O)N[C@@H](CC(=O)O)C(=O)N[C@H](C(=O)O)C(C)C)[C@@H](C)O)[C@@H](C)CC)C(=O)[C@H](CCCNC(=N)N)NC(=O)[C@H](CCCNC(=N)N)NC(=O)[C@H](CCCNC(=N)N)NC(=O)[C@H](CCC(N)=O)NC(=O)[C@H](CCCNC(=N)N)NC(=O)[C@H](CCCNC(=N)N)NC(=O)[C@H](CCCCN)NC(=O)[C@H](CCCCN)NC(=O)[C@H](CCCNC(=N)N)NC(=O)CNC(=O)[C@H](Cc1ccc(O)cc1)NC(C)=O)C(=O)N[C@@H](CCC(=O)O)C(=O)N[C@H](C(=O)N[C@@H](CC(=O)O)C(=O)N[C@H](C(=O)O)C(C)C)[C@@H](C)O [Compound 9] |  | half-life (plasmin; [2]): 3.82 ± 2.15 h; half-life (plasmin; read-out: T1/2): 3.82 ± 2.15 h
CC[C@H](C)[C@H](NC(=O)CCOCCOCCN(CCOCCOCCC(=O)N[C@H](C(=O)N[C@@H](CCC(=O)O)C(=O)N[C@H](C(=O)N[C@@H](CC(=O)O)C(=O)N[C@H](C(=O)O)C(C)C)[C@@H](C)O)[C@@H](C)CC)C(=O)[C@@H](CCCNC(=N)N)NC(=O)[C@@H](CCCNC(=N)N)NC(=O)[C@@H](CCCNC(=N)N)NC(=O)[C@@H](CCC(N)=O)NC(=O)[C@@H](CCCNC(=N)N)NC(=O)[C@@H](CCCNC(=N)N)NC(=O)[C@@H](CCCCN)NC(=O)[C@@H](CCCCN)NC(=O)[C@@H](CCCNC(=N)N)NC(=O)CNC(=O)[C@@H](Cc1ccc(O)cc1)NC(C)=O)C(=O)N[C@@H](CCC(=O)O)C(=O)N[C@H](C(=O)N[C@@H](CC(=O)O)C(=O)N[C@H](C(=O)O)C(C)C)[C@@H](C)O [Compound 38] |  | half-life (plasmin; [2]): 24 h
CC[C@H](C)[C@H](NC(=O)CCOCCOCCN(CCOCCOCCC(=O)N[C@H](C(=O)N[C@@H](CCC(=O)O)C(=O)N[C@H](C(=O)N[C@@H](CC(=O)O)C(=O)N[C@H](C(=O)O)C(C)C)[C@@H](C)O)[C@@H](C)CC)C(=O)[C@H](CCCCN)NC(=O)[C@H](CCCCN)NC(=O)[C@H](Cc1c[nH]c2ccccc12)NC(=O)[C@H](CCCCN)NC(=O)[C@H](CCSC)NC(=O)[C@H](CCCNC(=N)N)NC(=O)[C@H](CCCNC(=N)N)NC(=O)[C@H](CC(N)=O)NC(=O)[C@H](CCC(N)=O)NC(=O)[C@H](Cc1ccccc1)NC(=O)[C@H](Cc1c[nH]c2ccccc12)NC(=O)[C@@H](NC(=O)[C@H](CCCCN)NC(=O)[C@@H](NC(=O)[C@H](CCC(N)=O)NC(=O)[C@H](CCCNC(=N)N)NC(C)=O)[C@@H](C)CC)[C@@H](C)CC)C(=O)N[C@@H](CCC(=O)O)C(=O)N[C@H](C(=O)N[C@@H](CC(=O)O)C(=O)N[C@H](C(=O)O)C(C)C)[C@@H](C)O [Compound 46] |  | half-life (plasmin; isolated enzyme plasmin): 1.57 ± 0.133 h
CC(C)C[C@H](NC(=O)[C@@H](NC(=O)[C@H](CCC(=O)O)NC(=O)[C@H](CCCCN)NC(=O)CCOCCOCCN(CCOCCOCCC(=O)N[C@@H](CCCCN)C(=O)N[C@@H](CCC(=O)O)C(=O)N[C@H](C(=O)N[C@@H](CC(C)C)C(=O)N[C@H](C(=O)O)C(C)C)[C@@H](C)O)C(=O)[C@H](CCCNC(=N)N)NC(=O)[C@H](CCCNC(=N)N)NC(=O)[C@H](CCCNC(=N)N)NC(=O)[C@H](CCCNC(=N)N)NC(=O)[C@H](CCCNC(=N)N)NC(=O)CCC(=O)NCCOCCOCCCCCCCl)[C@@H](C)O)C(=O)N[C@H](C(=O)O)C(C)C [Compound 72] |  | CP50 [1]: 0.66 ± 0.14 µM
CC(C)C[C@H](NC(=O)[C@@H](NC(=O)[C@H](CCC(=O)O)NC(=O)[C@H](CCCCN)NC(=O)CCOCCOCCN(CCOCCOCCC(=O)N[C@@H](CCCCN)C(=O)N[C@@H](CCC(=O)O)C(=O)N[C@H](C(=O)N[C@@H](CC(C)C)C(=O)N[C@H](C(=O)O)C(C)C)[C@@H](C)O)C(=O)[C@H](CCCNC(=N)N)NC(=O)[C@H](CCCNC(=N)N)NC(=O)[C@H](CCCNC(=N)N)NC(=O)[C@H](CCCNC(=N)N)NC(=O)CCC(=O)NCCOCCOCCCCCCCl)[C@@H](C)O)C(=O)N[C@H](C(=O)O)C(C)C [Compound 74] |  | CP50 [1]: 0.37 ± 0.08 µM
CC(C)C[C@H](NC(=O)[C@@H](NC(=O)[C@H](CCC(=O)O)NC(=O)[C@H](CCCCN)NC(=O)CCOCCOCCN(CCOCCOCCC(=O)N[C@@H](CCCCN)C(=O)N[C@@H](CCC(=O)O)C(=O)N[C@H](C(=O)N[C@@H](CC(C)C)C(=O)N[C@H](C(=O)O)C(C)C)[C@@H](C)O)C(=O)[C@H](CCCNC(=N)N)NC(=O)[C@H](CCCNC(=N)N)NC(=O)[C@H](CCCNC(=N)N)NC(=O)CCC(=O)NCCOCCOCCCCCCCl)[C@@H](C)O)C(=O)N[C@H](C(=O)O)C(C)C [Compound 75] |  | CP50 [1]: 7.36 ± 0.31 µM

The next lines start with results.

half-life at 100 μM (plasmin; isolated enzyme plasmin) [h] | Structure (SMILES) | also measured
19.2 ± 3.38 | CC(=O)N[C@@H](CCCNC(=N)N)C(=O)N[C@@H](CCCNC(=N)N)C(=O)N[C@@H](CCCNC(=N)N)C(=O)N[C@@H](CCCNC(=N)N)C(=O)N[C@@H](CCCNC(=N)N)C(=O)N[C@@H](CCCNC(=N)N)C(=O)N[C@@H](CCCNC(=N)N)C(=O)N[C@@H](CCCNC(=N)N)C(=O)N[C@@H](CCCNC(=N)N)C(=O)N(CCOCCOCCC(=O)N[C@@H](CCCCN)C(=O)N[C@@H](CCC(=O)O)C(=O)N[C@H](C(=O)N[C@H](C(=O)N[C@H](C(=O)O)C(C)C)[C@@H](C)O)[C@@H](C)O)CCOCCOCCC(=O)N[C@@H](CCCCN)C(=O)N[C@@H](CCC(=O)O)C(=O)N[C@H](C(=O)N[C@H](C(=O)N[C@H](C(=O)O)C(C)C)[C@@H](C)O)[C@@H](C)O [Compound 25] | 
25.5 ± 9.63 | CC(=O)N[C@@H](CCCNC(=N)N)C(=O)N[C@@H](CCCNC(=N)N)C(=O)N[C@@H](CCCNC(=N)N)C(=O)N[C@@H](CCCNC(=N)N)C(=O)N[C@@H](CCCNC(=N)N)C(=O)N[C@@H](CCCNC(=N)N)C(=O)N[C@@H](CCCNC(=N)N)C(=O)N[C@@H](CCCNC(=N)N)C(=O)N[C@@H](CCCNC(=N)N)C(=O)N(CCOCCOCCC(=O)N[C@@H](CCCCN)C(=O)N[C@@H](CCC(=O)O)C(=O)N[C@H](C(=O)N[C@H](C(=O)N[C@H](C(=O)O)C(C)C)C(C)C)[C@@H](C)O)CCOCCOCCC(=O)N[C@@H](CCCCN)C(=O)N[C@@H](CCC(=O)O)C(=O)N[C@H](C(=O)N[C@H](C(=O)N[C@H](C(=O)O)C(C)C)C(C)C)[C@@H](C)O [Compound 27] | 
16.7 ± 2.85 | CC(=O)N[C@@H](CCCNC(=N)N)C(=O)N[C@@H](CCCNC(=N)N)C(=O)N[C@@H](CCCNC(=N)N)C(=O)N[C@@H](CCCNC(=N)N)C(=O)N[C@@H](CCCNC(=N)N)C(=O)N[C@@H](CCCNC(=N)N)C(=O)N[C@@H](CCCNC(=N)N)C(=O)N[C@@H](CCCNC(=N)N)C(=O)N[C@@H](CCCNC(=N)N)C(=O)N(CCOCCOCCC(=O)N[C@@H](CCCCN)C(=O)N[C@@H](CCC(=O)O)C(=O)N[C@H](C(=O)N[C@@H](CCCNC(=N)N)C(=O)N[C@H](C(=O)O)C(C)C)[C@@H](C)O)CCOCCOCCC(=O)N[C@@H](CCCCN)C(=O)N[C@@H](CCC(=O)O)C(=O)N[C@H](C(=O)N[C@@H](CCCNC(=N)N)C(=O)N[C@H](C(=O)O)C(C)C)[C@@H](C)O [Compound 29] | 
23.4 ± 2.07 | CC[C@H](C)[C@H](NC(=O)CCOCCOCCN(CCOCCOCCC(=O)N[C@H](C(=O)N[C@@H](CO)C(=O)N[C@H](C(=O)N[C@@H](CC(=O)O)C(=O)N[C@H](C(=O)O)C(C)C)[C@@H](C)O)[C@@H](C)CC)C(=O)[C@H](CCCNC(=N)N)NC(=O)[C@H](CCCNC(=N)N)NC(=O)[C@H](CCCNC(=N)N)NC(=O)[C@H](CCCNC(=N)N)NC(=O)[C@H](CCCNC(=N)N)NC(=O)[C@H](CCCNC(=N)N)NC(=O)[C@H](CCCNC(=N)N)NC(=O)[C@H](CCCNC(=N)N)NC(=O)[C@H](CCCNC(=N)N)NC(C)=O)C(=O)N[C@@H](CO)C(=O)N[C@H](C(=O)N[C@@H](CC(=O)O)C(=O)N[C@H](C(=O)O)C(C)C)[C@@H](C)O [Compound 31] | 
7.98 ± 1.28 | CC(=O)N[C@@H](CCCNC(=N)N)C(=O)N[C@@H](CCCNC(=N)N)C(=O)N[C@@H](CCCNC(=N)N)C(=O)N[C@@H](CCCNC(=N)N)C(=O)N[C@@H](CCCNC(=N)N)C(=O)N[C@@H](CCCNC(=N)N)C(=O)N[C@@H](CCCNC(=N)N)C(=O)N[C@@H](CCCNC(=N)N)C(=O)N[C@@H](CCCNC(=N)N)C(=O)N(CCOCCOCCC(=O)N[C@H](C(=O)N[C@@H](CCC(=O)O)C(=O)N[C@H](C(=O)N[C@H](C(=O)N[C@H](C(=O)O)C(C)C)C(C)C)[C@@H](C)O)C(C)C)CCOCCOCCC(=O)N[C@H](C(=O)N[C@@H](CCC(=O)O)C(=O)N[C@H](C(=O)N[C@H](C(=O)N[C@H](C(=O)O)C(C)C)C(C)C)[C@@H](C)O)C(C)C [Compound 33] | 
24 | CC[C@H](C)[C@H](NC(=O)CCOCCOCCN(CCOCCOCCC(=O)N[C@H](C(=O)N[C@@H](CCC(=O)O)C(=O)N[C@H](C(=O)N[C@@H](CC(=O)O)C(=O)N[C@H](C(=O)O)C(C)C)[C@@H](C)O)[C@@H](C)CC)C(=O)[C@@H](CCCNC(=N)N)NC(=O)[C@H](CCCNC(=N)N)NC(=O)[C@@H](CCCCN)NC(=O)[C@H](CCCCN)NC(=O)[C@@H](CCCNC(=N)N)NC(=O)CNC(=O)[C@@H](CCCNC(=N)N)NC(=O)[C@H](CCCNC(=N)N)NC(=O)[C@@H](CCCNC(=N)N)NC(C)=O)C(=O)N[C@@H](CCC(=O)O)C(=O)N[C@H](C(=O)N[C@@H](CC(=O)O)C(=O)N[C@H](C(=O)O)C(C)C)[C@@H](C)O [Compound 40] | 
24 | CC[C@H](C)[C@H](NC(=O)CCOCCOCCN(CCOCCOCCC(=O)N[C@H](C(=O)N[C@@H](CCC(=O)O)C(=O)N[C@H](C(=O)N[C@@H](CC(=O)O)C(=O)N[C@H](C(=O)O)C(C)C)[C@@H](C)O)[C@@H](C)CC)C(=O)[C@@H](CCCNC(=N)N)NC(=O)[C@@H](CCCNC(=N)N)NC(=O)[C@@H](CCCNC(=N)N)NC(=O)[C@@H](CCCNC(=N)N)NC(=O)[C@@H](CCCNC(=N)N)NC(=O)[C@@H](CCCNC(=N)N)NC(=O)[C@@H](CCCNC(=N)N)NC(=O)[C@@H](CCCNC(=N)N)NC(=O)[C@@H](CCCNC(=N)N)NC(C)=O)C(=O)N[C@@H](CCC(=O)O)C(=O)N[C@H](C(=O)N[C@@H](CC(=O)O)C(=O)N[C@H](C(=O)O)C(C)C)[C@@H](C)O [Compound 44] | 

Source: patent US20240245793A1, “PSD-95 INHIBITORS AND USES THEREOF” (priority 2021, published 2024)
